Read-outs that look alike come from different tables or passages of the source.
Columns and labels:
[1] = tested on: Leishmania major clone V1 (MHOM/IL/80/Friedlin)
Procedure: (B) Parasite burden. Quantification of parasite outgrowth from titrations of ear tissue lysates was performed at the indicated times. Values shown are means+SE of 6 mice/group. […] The effect of IDO inhibition during cutaneous leishmaniasis on antigen-specific cytokine production. […] (F) IL-10. Cytokines were quantified by ELISA in the supernatants of soluble L. major antigen-stimulated cells isolated from draining lymph nodes 4 wk after infection. Values shown are means+SE of 6 mice/group. *P<0.05.
Lesion size was quantified with a vernier caliper. Parasite burden was quantified by determining the highest dilution of ear tissue lysates in which promastigote outgrowth could be detected out after 7 days of incubation. […] Cells isolated from lymph nodes draining lesions were incubated with L major promastigote lysates.
Cytokines were quantified by ELISA in culture supernatants harvested 48 h later.

T. gondii = details: mouse, in vivo
visceral leishmaniasis = experiment: Treatment of visceral leishmaniasis in patients with oral 1-MT; assay type: in vivo
From the text: Patients present with symptoms of fever and organomegaly of long standing that is unresponsive to standard treatment, possibly with attendant anemia and pancytopenia, with a history of travel in an area in which leishmaniasis is known to be endemic. Laboratory tests confirm a diagnosis of visceral […]. […] Patients present with symptoms of fever and organomegaly of long standing that is unresponsive to standard treatment, possibly with attendant anemia and pancytopenia, with a history of travel in an area in which leishmaniasis is known to be endemic. Laboratory tests confirm a diagnosis of visceral leishmaniasis. […] Patients present with symptoms of fever and organomegaly of long standing that is unresponsive to standard treatment, possibly with attendant anemia and pancytopenia, with a history of travel in an area in which leishmaniasis is known to be endemic. Laboratory tests confirm a diagnosis of visceral leishmaniasis.

[2] = L. major antigen-stimulated, ELISA, 4 wk after infection, vs untreated
[3] = early phase of parasite clearance (4 wk after infection), CCA assay

From the text for T. gondii (ME49 strain): (B) Parasite burden. […] (C) Serum IFN-γ. (D) Serum TNF-α. (E) Serum IL-10. Systemic cytokine production was quantified by the CCA assay 30 d after infection. […] Values shown are means±SE of 8 mice/group. (F) Kinetic analysis of parasite burden in the experiment depicted in FIG. 1A. […] (G) IL-12/23p40 mRNA. (H) IFN-γ mRNA. (I) TNF-α mRNA. (J) IL-10 mRNA. Cytokine mRNA was quantified in brain by qRT-PCR 30 d after infection.
To evaluate parasite load, infected animals were killed and the number of T. gondii cysts present in brain homogenates from these animals were counted.

Cn1cc(C[C@H](N)C(=O)O)c2ccccc21 [1-MT, 1-methyl tryptophan]
serum levels of IL-4 ([1]; 1-MT treated vs untreated infected mice, data not shown): no differences
IFN-γ protein produced by cells from draining lymph nodes [1, 2]: Relatively more
IL-10 produced by T cells from draining lymph nodes [1, 2]: relatively less
serum IFN-γ [1, 3]: significantly increased
serum IL-10 concentrations [1, 3]: decreased
lesional size ([1]; first weeks after infection while lesion size increasing, vs untreated): No overt differences
lesional size ([1]; post apex period, weeks 4-12 post infection, vs untreated): significantly smaller
parasite burden ([1]; weeks 4 through 12 post infection, vs controls, FIG. 4B): significantly lower
disease course and mortality (T. gondii): reactivation of disease and increased mortality
local and systemic production of inflammatory mediators (T. gondii): relatively little differences
serum levels of IFN-γ, TNF-α and IL-10 (T. gondii (ME49 strain); CCA assay, 30 d after infection, vs control): No significant alteration
mortality (T. gondii (ME49 strain); T. gondii-infected mice given 1-MT, FIG. 1A): 100%
mRNA expression of IL-12/23p40, IFN-γ, TNF-α and IL-10 in the central nervous system (T. gondii (ME49 strain); qRT-PCR in brain, 30 d after infection, vs control): lack of biologically important changes
mortality (T. gondii (ME49 strain); second independent experiment, not pictured, 1-MT vs control): 100%
amelioration of symptoms of visceral leishmaniasis (visceral leishmaniasis; oral 1-MT 12.5-75 mg/kg/day with a drug such as amphotericin at less than usual doses, Example 4): equivalent to that achieved with standard drug therapy alone
amelioration of symptoms of visceral leishmaniasis (visceral leishmaniasis; oral 1-MT 12.5-75 mg/kg/day with a drug such as amphotericin at normal doses, Example 3): more rapid than that observed with standard drug therapy alone
symptoms of visceral leishmaniasis (visceral leishmaniasis; oral 1-MT approximately 12.5-75 mg/kg/day alone, Example 2): Amelioration of symptoms is observed

— patent US20100261774A1, “Methods for the modulation of Leishmania major infection in mammals” (Children's Hospital Medical Center, priority 2009, published 2010)
